{"source": "patent US9975944B2", "about": "“Synthetic peptides for the treatment of autoimmune diseases” (TEL HASHOMER MEDICAL RESEARCH INFRASTRUCTURE AND SERVICES …, priority 2013, dated 2018)", "key": {"[1]": {"system": "anti citrullinated filaggrin ACPA", "assay": "Peptide inhibition assay in ELISA, plates coated with cit-filaggrin", "parameters": "species or system human", "conditions": "sera of ACPA-positive RA patients diluted to about 50% binding OD, 2 h preincubation at room temperature", "method": "(§1) Peptide inhibition assay in ELISA was used to confirm the cross-reactivity of the Cit-ME peptide to the following anti-citrullinated protein antibodies (ACPA): anti citrullinated filaggrin, anti cit-β-fibrinogen, anti cit-collagen and anti cit-vimentin. Sera were obtained from ACPA RA patients and samples with highly positive ACPA levels were selected (≥100 U/ml) using commercial CCP ELISA test (INOVA). ELISA test was performed with each of the citrullinated peptides: cit-filaggrin (HQCHQESTCitGRSRGRCGRSGS) set forth in SEQ ID NO: 3, cit-β-fibrinogen (CitPAPPPISGGGYCitACit) set forth in SEQ ID NO: 2, cit-collagen (ACitGLTGCitPGDAK) set forth in SEQ ID NO: 21 and cit-vimentin (SAVRACitSSVPGVRK) set forth in SEQ ID NO: 22. Sera were diluted in PBS to obtain a reactivity of approximately 50% binding OD under standard assay conditions. Increasing concentrations of Cit-ME peptide were added to the diluted sera and incubated for two hours at room temperature. Specimens were then assayed in ELISA plates coated with each one of the peptides. […] Thus, ACPA have binding specificity to Cit-ME."}, "CD4+IL-17+ T cells": {"system": "CD4+IL-17+ T cells", "assay": "CD4+IL-17+ T cells in the spleen of AIA rats, FACS", "assay_type": "in vivo, rat", "method": "Distribution of pathogenic CD4^+IL-17^+ T cells in the spleen of experimental rats was assessed by FACS."}, "AIA rats": {"system": "AIA rats", "assay": "Histological signs of arthritis in ankle joints of AIA rats", "assay_type": "in vivo, rat", "conditions": "day 28 post disease induction, H&E, untreated 1.75±0.41", "method": "To evaluate the histological signs of arthritis, rats were sacrificed and ankle joints were collected on day 28 post disease induction. The joints were fixed immediately for 24 hours in 4% paraformaldehyde, then decalcified in rapid bone decalcifier (RDO; Apex Engineering, Plainfield, Ill., USA) for 6 hours at room temperature, and further fixed in 4% paraformaldehyde before embedding in paraffin. Sections (5 μm thick) were rehydrated in a graded ethanol series and stained with haematoxylin & eosin (H&E). FIGS. 11A to 11C show representative H&E stained joint tissue sections (magnification ×100). Arrowheads denote the infiltrated zones, scale bar=200 μm. The specimens were scored for severity of inflammation in the synovium, pannus formation, cartilage, and bone erosion. A close correlation between the clinical signs and the histopathological findings was found."}, "T cells": {"system": "T cells", "assay": "T cells apoptosis in PBMC of RA patients, annexin V/PI FACS", "assay_type": "cell-based, human", "conditions": "24 hours, gated on PI negative cells, compared with matched non-citrullinated peptide", "method": "To assess the ability of the citrullinated peptides to affect T cells apoptosis, peripheral blood mononuclear cells of rheumatoid arthritis patients were cultured in the presence of citrullinated, non-citrullinated peptides and Infliximab for 24 hours. Cells were double-stained for annexin V-fluorescein isothiocyanate (FITC) and PI-PE (apoptosis/necrosis markers) and analyzed by FACS. The results in FIG. 8 are presented after gating for PI negative cells (live cells). The β-Fib-Cit and Cit-ME (FIGS. 8A and 8B, respectively) induced T cells apoptosis (by 20% and 18%, respectively) as compared with the non-citrullinated peptides Non-Cit-β-Fib (FIG. 8D) and Non-Cit-ME (FIG. 8E). Infliximab induced apoptosis by 28% (FIG. 8C) as compared with the medium control (FIG. 8F)."}, "TGF-β": {"system": "TGF-β", "assay": "TGF-β gene expression in mononuclear cells derived from synovial fluid of RA patients, real-time PCR", "assay_type": "cell-based, human", "conditions": "24 h, compared to the non-citrullinated peptides", "method": "To assess the effect of the Cit-ME peptide (SEQ ID NO: 1) on inflammatory related genes expression, peripheral blood mononuclear cells derived from synovial fluid rheumatoid arthritis patients were incubated with the Cit-ME multi-epitope citrullinated peptide for 24 h. The effect of the peptide on gene expression was compared also to the effect of infliximab, a TNF-α blocker, which is an antirheumatic drug that acts as an anti-inflammatory compound. […] Results were determined by real-time PCR."}, "[2]": {"system": "T cells derived from the spleen", "assay": "Apoptosis of T cells from the spleen of AIA rats, Annexin V/PI staining", "assay_type": "in vivo, rat", "conditions": "gated for PI and CD4+, two independent experiments, control 13±1%", "method": "To assess apoptosis of T cells derived from the spleen of treated rats, the Annexin V/PI staining method was preformed. FIGS. 14A-14C are representative histograms of cells treated with Cit-Me (FIG. 14A), non-Cit-Me (FIG. 14B) or untreated (FIG. 14C). The histograms present apoptosis measured by Annexin V^+. First, cells were gated for PI and CD4^+ and next analyzed for percentage of Annexin-V positive cells. […] A significant increase (p<0.01) in the mean apoptotic rate was determined in cells from the spleen of Cit-ME treated rats (19.5±1.8%) in comparison with Non-Cit-ME or control (13.8±1.3% and 13±1%, respectively)."}, "anti cit-collagen ACPA": {"system": "anti cit-collagen ACPA", "assay": "Peptide inhibition assay in ELISA, plates coated with cit-collagen", "parameters": "species or system human", "conditions": "sera of ACPA-positive RA patients diluted to about 50% binding OD, 2 h preincubation at room temperature", "method": "as §1"}, "[3]": {"system": "CD4+CD25+FoxP3+ regulatory T cells", "assay": "Regulatory T cells in splenocytes of AIA rats, FACS", "assay_type": "in vivo, rat", "description": "Splenocytes from rats at day 28 post disease induction were stained with anti-CD4-FITC, anti-CD25-APC, and anti-Foxp3-PE (eBioscience) mAbs and analyzed by FACS. In representative outputs as shown in FIG. 12A-C, Regulatory T cells subpopulation was higher in Cit-ME treated rats (9%), compared to 7% and 6.2% in Non-Cit-ME peptide and untreated rats, respectively. Statistical analysis of the results is shown in FIG. 12D (Cit-ME n=9, Non-Cit-ME n=11, untreated rats n=7)."}, "CD4+CD25+Foxp3+ T cells": {"system": "CD4+CD25+Foxp3+ T cells", "assay": "Regulatory T cell proportion in PBMC of RA patients, FACS", "assay_type": "cell-based, human", "conditions": "1.25 μg/ml peptide, 48 hours, compared with non-citrullinated matched peptide", "method": "Given the observed immunomodulation of cytokines following incubation of peripheral blood mononuclear cells obtained from rheumatoid arthritis patients with citrullinated peptides, the citrullinated peptides were tested for their ability to exert an effect on the T regulatory population proportion. Peripheral blood mononuclear cells of rheumatoid arthritis patients were cultured in the presence of 1.25 μg/ml of the peptides (Fil-Cit, β-Fib-Cit, and Cit-ME; FIGS. 6A, 6B and 6E, respectively, and Fil-NC, β-Fib-NC and Non-Cit-ME; FIGS. 6C, 6D and 6G, respectively), and Infliximab (FIG. 6F) for 48 hours. Cells cultured with medium devoid of the peptides and Infliximab served as control (FIG. 6H). Thereafter, cells were stained for the expression of CD4, CD25, and FoxP3 and analyzed by FACS. […] Mean percentage of CD4^+CD25^+Foxp3^+ T cells in the presence of Infliximab was increased by 14% as compared to medium (FIG. 6F and FIG. 6H, respectively). Thus, citrullinated peptides are able to induce the expansion of the T regulatory cell population."}}}
{"substance": "VCitLCitSSVESTCitGRSCitPAPPPACitGLT [Cit-ME]", "values": [{"measurement": "amount of peptide sufficient to impair binding of specific ACPA to cit-filaggrin", "setting": "[1]", "result": "10 to 200", "unit": "µg"}, {"measurement": "population of CD4+IL-17+-expressing splenocytes, statistical analysis", "setting": "CD4+IL-17+ T cells; AIA rats, n=8, untreated 1.14±0.2", "result": "0.68±0.1"}, {"measurement": "IL-17+ population, representative results", "setting": "CD4+IL-17+ T cells; spleen of AIA rats, untreated 2%", "result": 0.6, "unit": "%"}, {"measurement": "histological inflammatory score", "setting": "AIA rats", "result": "0.54±0.2"}, {"measurement": "induction of T cells apoptosis", "setting": "T cells", "result": 18, "unit": "%"}, {"measurement": "expression of TGF-β", "setting": "TGF-β", "result": "up-regulated"}, {"measurement": "mean apoptotic rate (Annexin-V positive cells)", "setting": "[2]", "result": "19.5±1.8", "unit": "%"}, {"measurement": "amount of peptide sufficient to impair binding of specific ACPA to cit-collagen", "setting": "anti cit-collagen ACPA", "result": "10 to 200", "unit": "µg"}, {"measurement": "percentage of CD4+CD25+FoxP3+ regulatory T cells subset, statistical analysis", "setting": "[3]; spleens of AIA rats, day 28, untreated 7.17±0.31", "result": "8.13±0.17", "unit": "%"}, {"measurement": "Regulatory T cells subpopulation, representative outputs", "setting": "[3]; splenocytes of AIA rats, day 28 post disease induction, untreated 6.2%", "result": 9, "unit": "%"}, {"measurement": "increase in mean percentage of CD4+CD25+Foxp3+ T cells", "setting": "CD4+CD25+Foxp3+ T cells", "result": 12, "unit": "%"}]}
